Assay results published in ChEMBL document CHEMBL1201862, “PubChem BioAssay data set” (2004).
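Results reflect a 48-hour exposure of cells in 96-well plates to compound at five concentrations. GI50 marks 50% less growth.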 Activity calls are given as the source filed them. Cut-off read from the data, not from the text of the source: active = GI50 up to about 1.1 µM and inactive = higher.

Legend:
Test in all cases: NCI anticancer screen, dose series, 48 h
786-0 = tested on: 786-0
ACHN = tested on: ACHN
CCRF-CEM = tested on: CCRF-CEM
COLO 205 = tested on: COLO 205
HCC 2998 = tested on: HCC 2998
MOLT-4 = tested on: MOLT-4
NCI-H226 = tested on: NCI-H226
NCI-H522 = tested on: NCI-H522
OVCAR-4 = tested on: OVCAR-4
OVCAR-5 = tested on: OVCAR-5
OVCAR-8 = tested on: OVCAR-8
SF-268 = tested on: SF-268
SF-295 = tested on: SF-295
SF-539 = tested on: SF-539
SK-MEL-28 = tested on: SK-MEL-28
SK-MEL-2 = tested on: SK-MEL-2
SK-OV-3 = tested on: SK-OV-3
SN12C = tested on: SN12C
SNB-75 = tested on: SNB-75
SW-620 = tested on: SW-620

SMILES | GI50 (786-0) | GI50 (ACHN) | GI50 (CCRF-CEM) | GI50 (COLO 205) | GI50 (HCC 2998) | GI50 (MOLT-4) | GI50 (NCI-H226) | GI50 (NCI-H522) | GI50 (OVCAR-4) | GI50 (OVCAR-5) | GI50 (OVCAR-8) | GI50 (SF-268) | GI50 (SF-295) | GI50 (SF-539) | GI50 (SK-MEL-28) | GI50 (SK-MEL-2) | GI50 (SK-OV-3) | GI50 (SN12C) | GI50 (SNB-75) | GI50 (SW-620)
C[C@H]1O[C@@H](O[C@H]2[C@@H](O)C[C@H](O[C@H]3[C@@H](O)C[C@H](O[C@H]4CC[C@@]5(C)[C@H](CC[C@@H]6[C@@H]5CC[C@]5(C)[C@@H](C7=CC(=O)OC7)[C@@H](O)C[C@]65O)C4)O[C@@H]3C)O[C@@H]2C)C[C@H](O)[C@@H]1O [GITOXIN] | 0.151 µM (active) | 0.0948 µM (active) | 0.109 µM (active) | 0.798 µM (active) | 4.19 µM (inactive) | 0.0277 µM (active) | 0.855 µM (active) | 0.0238 µM (active) | 0.271 µM (active) | 0.656 µM (active) | 0.226 µM (active) | 0.152 µM (active) | 0.169 µM (active) | 0.1 µM (active) | 1.15 µM (inactive) | 0.543 µM (active) | 0.39 µM (active) | 0.164 µM (active) | 0.703 µM (active) | 0.258 µM (active)
O=C1NC(O)n2c(=O)[nH]c(=O)n21 (stereo not given) | > 100 µM (inactive) | > 100 µM (inactive) | > 100 µM (inactive) | > 100 µM (inactive) | > 100 µM (inactive) | > 100 µM (inactive) | > 100 µM (inactive) | > 100 µM (inactive) | > 100 µM (inactive) | > 100 µM (inactive) | > 100 µM (inactive) | > 100 µM (inactive) | > 100 µM (inactive) | > 100 µM (inactive) | > 100 µM (inactive) | > 100 µM (inactive) | > 100 µM (inactive) | > 100 µM (inactive) | > 100 µM (inactive) | > 100 µM (inactive)
CCCCCCc1cc2cc(-c3cn4c(n3)sc3ccccc34)c(=O)oc2cc1O | > 31.6 µM (inactive) | > 100 µM (inactive) | > 100 µM (inactive) | > 100 µM (inactive) | > 100 µM (inactive) | > 100 µM (inactive) | > 100 µM (inactive) | > 90.4 µM (inactive) | 3.98 µM (inactive) | > 100 µM (inactive) | 5.82 µM (inactive) | > 100 µM (inactive) | > 100 µM (inactive) | > 100 µM (inactive) | 3.39 µM (inactive) | > 100 µM (inactive) | > 100 µM (inactive) | > 100 µM (inactive) | > 78.5 µM (inactive) | > 78.7 µM (inactive)
COc1cc2cc3c4c(cc(OC)c(OC)c4c2cc1OC)CCN3C(=O)OCCN1CCNCC1 | 11.6 µM (inactive) | 15.1 µM (inactive) | 18.4 µM (inactive) | 8.22 µM (inactive) | 16.1 µM (inactive) | 16.1 µM (inactive) | 14.4 µM (inactive) | 16.6 µM (inactive) | 17.5 µM (inactive) | 18 µM (inactive) | 15.9 µM (inactive) | 11.1 µM (inactive) | 15 µM (inactive) | 15.1 µM (inactive) | 18.5 µM (inactive) | 19.3 µM (inactive) | 17.9 µM (inactive) | 15.9 µM (inactive) | 11.9 µM (inactive) | 14.9 µM (inactive)
COc1ccc2cc(C(=O)NCCCNC(=O)c3ccc4cc(OC)ccc4c3)ccc2c1 | 19.6 µM (inactive) | 33.7 µM (inactive) | > 100 µM (inactive) | > 100 µM (inactive) | > 100 µM (inactive) | > 100 µM (inactive) | 49.4 µM (inactive) | > 100 µM (inactive) | 61 µM (inactive) | > 100 µM (inactive) | 22.6 µM (inactive) | 23.9 µM (inactive) | 22.4 µM (inactive) | 3.94 µM (inactive) | > 100 µM (inactive) | > 75.3 µM (inactive) | 31.5 µM (inactive) | > 49.9 µM (inactive) | 17.8 µM (inactive) | > 100 µM (inactive)
CN1CN(c2ccccc2)C2(CCN(CCCC3(c4cccs4)OCCO3)CC2)C1=O | > 100 µM (inactive) | > 100 µM (inactive) | > 100 µM (inactive) | > 100 µM (inactive) | > 100 µM (inactive) | > 100 µM (inactive) | > 100 µM (inactive) | > 100 µM (inactive) | > 100 µM (inactive) | > 100 µM (inactive) | > 100 µM (inactive) | > 100 µM (inactive) | > 100 µM (inactive) | > 100 µM (inactive) | > 100 µM (inactive) | > 100 µM (inactive) | > 100 µM (inactive) | > 100 µM (inactive) | 88.7 µM (inactive) | > 100 µM (inactive)
CC(=O)N(N=O)c1ccc(N(N=O)C(C)=O)cc1 | > 100 µM (inactive) | > 100 µM (inactive) | > 100 µM (inactive) | > 100 µM (inactive) | > 100 µM (inactive) | > 100 µM (inactive) | > 100 µM (inactive) | > 100 µM (inactive) | > 100 µM (inactive) | > 100 µM (inactive) | > 100 µM (inactive) | > 100 µM (inactive) | > 100 µM (inactive) | > 100 µM (inactive) | > 100 µM (inactive) | > 100 µM (inactive) | > 100 µM (inactive) | > 100 µM (inactive) | > 100 µM (inactive) | > 100 µM (inactive)
CN(CCc1ccc(Cl)c(Cl)c1)CCN(C)CCN1CCCC1 | 8.99 µM (inactive) | 21.2 µM (inactive) | 3.72 µM (inactive) | 2.23 µM (inactive) | 1.96 µM (inactive) | 3.6 µM (inactive) | 20 µM (inactive) | 6.64 µM (inactive) | 28.5 µM (inactive) | 18.6 µM (inactive) | 21.7 µM (inactive) | 6.5 µM (inactive) | 16.5 µM (inactive) | 4.08 µM (inactive) | 1.64 µM (inactive) | 3.33 µM (inactive) | 21.2 µM (inactive) | 15.7 µM (inactive) | 14.9 µM (inactive) | 12.1 µM (inactive)
